# Measured values taken from ChEMBL document CHEMBL2151037, “Synthesis of novel 1H-1,2,3-triazole tethered C-5 substituted uracil-isatin conjugates and their cytotoxic evaluation” (Eur J Med Chem, 2012).
# pIC50: −log10 of the molar value.
# How the values were obtained:
# Type in all cases: functional, cell-based
# MCF7 = assay: Antiproliferative activity against human MCF7 cells after 24 hrs by MTT assay; settings: MCF7, 24 h
# DU-145 = assay: Antiproliferative activity against human DU145 cells after 24 hrs by MTT assay; settings: DU-145, 24 h
# HeLa = assay: Antiproliferative activity against human HeLa cells after 24 hrs by MTT assay
Compound,pIC50 (MCF7),pIC50 (DU-145),pIC50 (HeLa)
Cc1ccc2c(c1)C(=O)C(=O)N2CCCn1cc(Cn2ccc(=O)n(Cc3cn(CCCN4C(=O)C(=O)c5cc(C)ccc54)nn3)c2=O)nn1,< 4.00,4.20,< 4.00
O=C1C(=O)N(CCn2cc(Cn3ccc(=O)n(Cc4cn(CCN5C(=O)C(=O)c6cc(Cl)ccc65)nn4)c3=O)nn2)c2ccc(Cl)cc21,< 4.00,4.37,< 4.00
O=C1C(=O)N(CCn2cc(Cn3cc(F)c(=O)n(Cc4cn(CCN5C(=O)C(=O)c6ccccc65)nn4)c3=O)nn2)c2ccccc21,< 4.00,4.54,< 4.00
O=C1C(=O)N(CCCn2cc(Cn3ccc(=O)n(Cc4cn(CCCN5C(=O)C(=O)c6cc(Cl)ccc65)nn4)c3=O)nn2)c2ccc(Cl)cc21,< 4.00,4.86,4.48
O=C1C(=O)N(CCn2cc(Cn3cc(Cl)c(=O)n(Cc4cn(CCN5C(=O)C(=O)c6ccccc65)nn4)c3=O)nn2)c2ccccc21,< 4.00,4.74,< 4.00

# Further compounds by rising pIC50 (MCF7), results first:
pIC50 (MCF7),pIC50 (DU-145),pIC50 (HeLa),Compound
4.01,4.18,4.28,O=C1C(=O)N(CCCn2cc(Cn3ccc(=O)n(Cc4cn(CCCN5C(=O)C(=O)c6cc(F)ccc65)nn4)c3=O)nn2)c2ccc(F)cc21
4.20,< 4.00,< 4.00,O=C1C(=O)N(CCn2cc(Cn3cc(F)c(=O)n(Cc4cn(CCN5C(=O)C(=O)c6cc(Cl)ccc65)nn4)c3=O)nn2)c2ccc(Cl)cc21
4.25,< 4.00,4.29,O=C1C(=O)N(CCCn2cc(Cn3ccc(=O)n(Cc4cn(CCCN5C(=O)C(=O)c6ccccc65)nn4)c3=O)nn2)c2ccccc21
4.29,4.42,4.28,Cc1ccc2c(c1)C(=O)C(=O)N2CCn1cc(Cn2ccc(=O)n(Cc3cn(CCN4C(=O)C(=O)c5cc(C)ccc54)nn3)c2=O)nn1
4.34,4.24,< 4.00,O=C1C(=O)N(CCn2cc(Cn3ccc(=O)n(Cc4cn(CCN5C(=O)C(=O)c6ccccc65)nn4)c3=O)nn2)c2ccccc21
4.37,< 4.00,< 4.00,O=C1C(=O)N(CCn2cc(Cn3ccc(=O)n(Cc4cn(CCN5C(=O)C(=O)c6cc(F)ccc65)nn4)c3=O)nn2)c2ccc(F)cc21
4.42,< 4.00,4.18,O=C1C(=O)N(CCn2cc(Cn3cc(Cl)c(=O)n(Cc4cn(CCN5C(=O)C(=O)c6cc(Cl)ccc65)nn4)c3=O)nn2)c2ccc(Cl)cc21
